From paper PMC9579956 (RSC Medicinal Chemistry, 2022)

Target: Mycobacterium thermoresistible (Mtr) LpqY (Mycolicibacterium thermoresistibile, UniProt G7CES0)
Assay type: binding
Conditions: for Pathogen Box screen signal/noise ratio: single dose MST screen against LpqY

Mycobacterium thermoresistible (Mtr) LpqY, sequence (G7CES0 29-471): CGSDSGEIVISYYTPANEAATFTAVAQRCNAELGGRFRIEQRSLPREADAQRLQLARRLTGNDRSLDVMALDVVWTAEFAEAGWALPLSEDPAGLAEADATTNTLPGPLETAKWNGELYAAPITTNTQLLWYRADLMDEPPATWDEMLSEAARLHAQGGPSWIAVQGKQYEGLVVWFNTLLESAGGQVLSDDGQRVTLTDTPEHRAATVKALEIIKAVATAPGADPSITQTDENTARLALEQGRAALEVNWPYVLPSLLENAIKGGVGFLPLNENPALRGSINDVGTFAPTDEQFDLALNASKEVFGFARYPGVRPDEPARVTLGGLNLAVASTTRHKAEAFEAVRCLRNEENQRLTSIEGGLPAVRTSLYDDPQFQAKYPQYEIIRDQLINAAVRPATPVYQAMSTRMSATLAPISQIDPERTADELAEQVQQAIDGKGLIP

| SMILES | Pathogen Box screen signal/noise ratio | Screen signal/noise ratio (MST S/N) (compound 100 μM, LpqY 500 nM, 10% DMSO, duplicate) |
| --- | --- | --- |
| CCCCOC(=O)Nc1cc2nc(C3CCCCC3)[nH]c2cc1N1CCCC1 [MMV687730] | 1.3 | – |
| Cc1cc(OCC(=O)NCc2ccccc2)c2cc(Br)ccc2n1 [MMV687747] | 0.856 | – |
| c1ccc(C[C@@H]2CN(c3nccc(Oc4ccc(-n5ccnc5)cc4)n3)CCN2)cc1 [MMV687749] | 0.0357 | – |
| c1ccc(Oc2ccc(-c3cc(C4CCOCC4)[nH]n3)cc2)cc1 [MMV687762] | 0.6 | – |
| Cc1cnc(N2CCN[C@@H](Cc3ccccc3)C2)nc1Oc1ccc(-n2ccnc2)cc1 [MMV687765] | 2.2 | – |
| Cc1cc(C2=NOC(c3cc(Cl)c(F)c(Cl)c3)(C(F)(F)F)C2)ccc1C(=O)NCc1ccc2c(c1)C(C)(C)OB2O (centres unmarked) [MMV687776] | 1.6 | – |
| CC1(C)Cc2c(c(N3CCOCC3)nc3snc(Br)c23)CO1 [MMV687794] | 0.0714 | – |
| NCCC(O)C(=O)N[C@@H]1C[C@H](N)[C@@H](OC2O[C@H](CN)[C@@H](O)[C@H](O)[C@H]2O)[C@H](O)C1OC1O[C@H](CO)[C@@H](O)[C@H](N)[C@H]1O (some centres unmarked) [MMV687796] | 1.2 | – |
| C[C@H]1COc2c(N3CCN(C)CC3)c(F)cc3c(=O)c(C(=O)O)cn1c23 [MMV687798] | 0.9 | – |
| CC(C)N=c1cc2n(-c3ccc(Cl)cc3)c3ccccc3nc-2cc1Nc1ccc(Cl)cc1 [MMV687800] | 0.6 | – |
| CC[C@H](CO)NCCN[C@H](CC)CO [MMV687801] | 1.5 | – |
| CC(=O)NC[C@@H]1CN(c2ccc(N3CCOCC3)c(F)c2)C(=O)O1 [MMV687803] | 2.0 | – |
| O=C(Nc1ccc(C(F)(F)F)c(C(F)(F)F)c1)c1cc(Cl)ccc1O [MMV687807] | 0.5 | – |
| CN1CCN(CCCOc2ncc(Nc3ncc(-c4ccc(C(F)(F)F)c(F)c4)nc3C(N)=O)cn2)CC1 [MMV687812] | 4.1 | – |
| O=C1O[C@@H](COc2ccon2)CN1c1cc(F)c(C2=CCN(Cc3ccccc3)CC2)c(F)c1 [MMV687813] | 1.0 | – |
| Cc1cccc(-c2nc(Nc3ccncn3)c3sccc3n2)n1 [MMV688122] | 1.3 | – |
| CCc1ccc(S(=O)(=O)Nc2cc(CN3CCN(CCC(C)C)CC3)ccc2C)cc1 [MMV688124] | 0.85 | – |
| CCCc1ccc(S(=O)(=O)Nc2ccc(CN3CCN(CC4CC4)CC3)cc2)cc1 [MMV688125] | 0.6 | – |
| c1ccc(Oc2ccc(-c3cncc(-c4ccc5[nH]ccc5c4)n3)cc2)cc1 [MMV688178] | 1.0 | – |
| N=C(N)Nc1ccc(-c2ccc(-c3ccc(NC(=N)N)cc3Cl)o2)c(Cl)c1 [MMV688179] | 2.0 | – |
| Cc1nn(C)c(C)c1NS(=O)(=O)c1c(Cl)cc(-c2ccnc(N3CCNCC3)c2)cc1Cl [MMV688180] | 0.15 | – |
| CC1(COc2ccc(N3CCC(Oc4ccc(OC(F)(F)F)cc4)CC3)cc2)Cn2cc([N+](=O)[O-])nc2O1 (centres unmarked) [MMV688262] | 0.232 | – |
| COc1ccc(-c2cnc3cnc(-c4cccc(OC(C)C)c4)cn23)cc1 [MMV688270] | 0.0179 | – |

| SMILES | Pathogen Box screen signal/noise ratio | Screen signal/noise ratio (MST S/N) (compound 100 μM, LpqY 500 nM, 10% DMSO, duplicate) |
| --- | --- | --- |
| N=C(N)Nc1ccc(-c2ccc(-c3ccc(N=C(N)N)c(Cl)c3)o2)cc1Cl [MMV688271] | 2.0 | – |
| Nc1ccc2ncnc(Nc3ccc(OCc4cccc(F)c4)c(Cl)c3)c2c1 [MMV688273] | 0.8 | – |
| O=C(CN1CCOCC1)Nc1ccc2ncnc(Nc3ccc(OCc4cccc(F)c4)c(Cl)c3)c2c1 [MMV688274] | 1.0 | – |
| CC1=Nc2ccc(Cl)cc2C(O)(c2ccc(C)cc2)N1CCN1CCCCC1 (centres unmarked) [MMV688279] | 0.8 | – |
| CN1CCN(S(=O)(=O)c2ccc(-c3ccc4c(Nc5ncc(Cl)cn5)ccnc4c3)cc2)CC1 [MMV688283] | 1.8 | – |
| COc1ccc(-c2nnc3ccc(-c4cccc(C(C)C)c4)cn23)cc1OC [MMV688313] | 1.1 | – |
| CC(=O)NCC1CN(c2ccc(-c3ccc(CNCc4cn[nH]n4)cc3)c(F)c2)C(=O)O1 (centres unmarked) [MMV688327] | 0.344 | – |
| CC(=O)N1CCN(c2ccc(Oc3ccc(Cl)cc3O)cc2)CC1 [MMV688330] | 1.8 | – |
| Nc1nc(N)c2c3c(sc2n1)CN(Cc1ccccc1)CC3 [MMV688345] | 2.8 | – |
| COC(=O)c1ccc(F)cc1NS(=O)(=O)c1cccc(-c2cnn(Cc3ccccc3)c2)c1 [MMV688350] | 1.5 | – |
| O=C1[C@@H](Oc2ccccc2)[C@@H](c2ccc(Cl)cc2)N1CCn1cnc2c(NCc3ccccc3)ncnc21 [MMV688352] | 0.212 | – |
| COc1ccc(C2=NN(C3CCCCCC3)C(=O)C2(C)C)cc1OCc1ccccn1 [MMV688360] | 1.5 | – |
| c1cc(C2=NCCN2)cc(-c2cc(-c3ccc(C4=NCCN4)cc3)no2)c1 [MMV688361] | 0.271 | – |
| CC(C)(C)OC(=O)N1CCC(Cn2nc(-c3cnc4ccccc4c3)c3c(N)ncnc32)CC1 [MMV688364] | 0.6 | – |
| NCCN(C(=O)c1ccc(Cl)cc1Cl)c1ccc(OCc2ccc(Cl)cc2)cc1 [MMV688371] | 1.7 | – |
| O=C(Nc1ccc(F)c(-c2nc3cc(-c4ccccc4)cnc3[nH]2)c1)N1CCCC1 [MMV688372] | 0.9 | – |
| COc1cc(C2=NCCN2)ccc1-c1cn(-c2cccc(C3=NCCN3)c2)nn1 [MMV688407, 4-[4-(4,5-dihydro-1H-imidazol-2-yl)-2-methoxyphenyl]-1-[3-(4,5-dihydro-1H-imidazol-2-yl)phenyl]triazole] | 8.0 | 8.0 |
| CC1=Nc2ccc(Cl)cc2C(c2ccccc2)N1CCNC(=O)CN(C)C (centres unmarked) [MMV688410] | 0.5 | – |
| Nc1ncnc2c1c(-c1cnc3ccccc3c1)nn2CC1CCNCC1 [MMV688411] | 2.1 | – |
| CO[C@@H]1CN(c2ccc(C#CC3(O)CN4CCC3CC4)c(Cc3ccccc3)n2)C[C@H]1O (some centres unmarked) [MMV688415] | 1.0 | – |
| CC(C)(C)OC(=O)N1CCN(c2nccc(-c3ccc(-c4ccc(Cl)cc4)s3)n2)CC1 [MMV688416] | 0.333 | – |
| CC(C)n1nc(-c2cc3c(Cl)cccc3[nH]2)c2c(N)ncnc21 [MMV688417] | 1.3 | – |
| Cn1ccnc1CNCCS(=O)(=O)c1cccc(Nc2ccc(-c3cccc(F)c3)cn2)c1 [MMV688466] | 0.0 | – |

| SMILES | Pathogen Box screen signal/noise ratio | Screen signal/noise ratio (MST S/N) (compound 100 μM, LpqY 500 nM, 10% DMSO, duplicate) |
| --- | --- | --- |
| CCCCN(CCCC)c1c(C#N)cc(S(=O)(=O)Nc2ccccc2)cc1C#N [MMV688467] | 0.7 | – |
| Nc1ncnc2[nH]nc(Cc3cccc4ccccc34)c12 [MMV688469] | 0.357 | – |
| CS(=O)(=O)N1CCC(CCn2nc(Cc3cccc4ccccc34)c3c(N)ncnc32)CC1 [MMV688470] | 0.75 | – |
| CC(C(=O)Nc1ccc2oc(-c3ccncc3)nc2c1)c1ccccc1 (centres unmarked) [MMV688471] | 1.6 | – |
| CC(Oc1cccc(Cl)c1)C(=O)Nc1ccc2oc(-c3ccncc3)nc2c1 (centres unmarked) [MMV688472] | 0.7 | – |
| COc1cc(C2=NCCN2)ccc1-n1cc(-c2cccc(C3=NCCN3)c2)nn1 [MMV688474] | 0.217 | – |
| CC(=O)NCC1CN(c2ccc(-c3ccc(CO)cc3)c(F)c2)C(=O)O1 (centres unmarked) [MMV688508] | 0.8 | – |
| O=C(OCc1ccccc1)N1CCC(c2cc(-c3ccncc3)c(-c3ccc(F)cc3)[nH]2)CC1 [MMV688509] | 0.0833 | – |
| N=C(N)c1ccc(-c2cc(-c3ccccc3)on2)cc1 [MMV688514] | 1.1 | – |
| CC(C)(C)C(=O)N(CCCCCCN1C[C@H](O)[C@@H](O)[C@H](O)[C@H]1CO)C1CCCCCC1 [MMV688543] | 1.3 | – |
| COc1ccc(C2=NCCN2)cc1-c1cn(-c2cccc(C3=NCCN3)c2)nn1 [MMV688547] | 0.9 | – |
| CC(C)(C)n1nc(-c2ccccc2)c2c(N)ncnc21 [MMV688548] | 1.0 | – |
| CCc1ccccc1-n1c(C)cn2c3c(=O)n(C(C(=O)OC)C(C)C)c(=O)n(C)c3nc12 (centres unmarked) [MMV688550] | 0.222 | – |
| Cc1nn(C(=O)Nc2cccc(C(F)(F)F)c2)c(C)c1Sc1ncccn1 [MMV688552] | 0.8 | – |
| O=C(NCc1ccoc1)N1CCN(Cc2ccc3c(c2)OCO3)CC1 [MMV688553] | 0.8 | – |
| CNc1snc(C)c1C(=O)NCCOc1ccc(OC)cc1 [MMV688554] | 0.8 | – |
| O=C(NCc1ccco1)N1CCN(Cc2ccc(Cl)s2)CC1 [MMV688555] | 0.218 | – |
| NCC(c1cccs1)S(=O)(=O)c1ccccc1 (centres unmarked) [MMV688557] | 0.569 | – |
| CN1CCC(c2cc(-c3ccncc3)c(-c3ccc(F)cc3)[nH]2)CC1 [MMV688703] | 1.2 | – |
| Cc1cc2nc(NC(=O)C(C)(C)C)nc(Cl)c2n1Cc1ccc(Cl)cc1 [MMV688704] | 1.2 | – |
| CO/N=C(\C(=O)OC)c1ccccc1CO/N=C(\C)c1cccc(C(F)(F)F)c1 [MMV688754] | 1.2 | – |
